Reference: patent US9730938B2, “Bruton's tyrosine kinase inhibitor combinations and uses thereof” (Pharmacyclics LLC, priority 2014, dated 2017)

Assays:
Format in all cases: cell-based
Conditions in all cases: 3 days
[1] = test system: TMD8; assay: Combined drug treatment cell viability, CellTiter-Glo assay (Example 2)
[2] = test system: OCI-LY-3; assay: as above
[3] = test system: U2932; assay: as above
[4] = test system: HBL-1; assay: as above
[5] = test system: OCI-LY-10; assay: as above
[6] = test system: SU-DHL-2; assay: as above
[7] = test system: OCI-LY-3; assay: Combined drug treatment cell viability, CellTiter-Glo assay (Example 1)
Description: (§1) DLBCL cells at either 1×10^4 cells or 2×10^4 cells were plated onto each well of a 96-W plate (Table 1).
(§2) The stock solutions for the IDH1 inhibitor AGI5198 and the MALT1 inhibitor MI-2 were each prepared at 50 mM concentration.
(§3) The 96-W plate was then incubated for 3 days. Cell viability was examined using a CellTiter-Glo assay.
(§4) A 40 μL of CellTiter-Glo reagent was added directly into each well of the 96-W plate. The plate was then shaken on a Shaker (Labsystem Wellmix) at speed 5 for 10-20 min at room temperature. Next, 100 μL of the mixed medium was transferred to a white, non-transparent, flat bottom 96-W plate for assaying. A Flexstation 3 luminometer was used for detecting and measuring the luminescent signals. Measurements were taken at room temperature.
(§5) In general, the combination is described as synergistic (CI<1), additive (CI=1), or antagonistic (CI>1). Synergism is further separated into very strong synergism (<0.1), strong synergism (0.1-0.3), synergism (0.3-0.7), moderate synergism (0.7-0.85), and slight synergism (0.85-0.9).

[8] = test system: OCI-LY-10; assay: as above
Description: as §1, §2, §3, §4, §5

[9] = test system: SU-DHL-2; assay: as above
Description: as §1, §2, §3, §4, §5

[10] = test system: U2932; assay: as above
Description: as §1, §2, §3, §4, §5

[11] = test system: TMD8; assay: as above
Description: as §1, §2, §3, §4, §5

[12] = ibrutinib 0 nM, JAK3 10 μM / MCL-1 3 μM alone
[13] = ibrutinib 0.0512 nM, JAK3 10 μM / MCL-1 3 μM / medium alone
[14] = ibrutinib 0.256 nM, JAK3 10 μM / MCL-1 3 μM / medium alone
[15] = ibrutinib 1.28 nM, JAK3 10 μM / MCL-1 3 μM / medium alone
[16] = ibrutinib 6.4 nM, JAK3 10 μM / MCL-1 3 μM / medium alone
[17] = ibrutinib 32 nM, JAK3 10 μM / MCL-1 3 μM / medium alone
[18] = ibrutinib 160 nM, JAK3 10 μM / MCL-1 3 μM / medium alone
[19] = ibrutinib 800 nM, JAK3 10 μM / MCL-1 3 μM / medium alone
[20] = ibrutinib 20000 nM, JAK3 10 μM / MCL-1 3 μM / medium alone
[21] = ibrutinib 40000 nM, JAK3 10 μM / MCL-1 3 μM / medium alone
[22] = ibrutinib 0 nM, IDH1i 10 uM / MALT1i 5 uM alone
[23] = ibrutinib 0.0256 nM, IDH1i 10 uM / MALT1i 5 uM / medium alone
[24] = ibrutinib 0.128 nM, IDH1i 10 uM / MALT1i 5 uM / medium alone
[25] = ibrutinib 0.64 nM, IDH1i 10 uM / MALT1i 5 uM / medium alone
[26] = ibrutinib 3.2 nM, IDH1i 10 uM / MALT1i 5 uM / medium alone
[27] = ibrutinib 16 nM, IDH1i 10 uM / MALT1i 5 uM / medium alone
[28] = ibrutinib 80 nM, IDH1i 10 uM / MALT1i 5 uM / medium alone
[29] = ibrutinib 400 nM, IDH1i 10 uM / MALT1i 5 uM / medium alone
[30] = ibrutinib 2000 nM, IDH1i 10 uM / MALT1i 5 uM / medium alone
[31] = ibrutinib 10000 nM, IDH1i 10 uM / MALT1i 5 uM / medium alone
[32] = ibrutinib 0 nM, IDH1i 10 uM / MALT1i 200 nM alone
[33] = ibrutinib 0.0256 nM, IDH1i 10 uM / MALT1i 200 nM / medium alone
[34] = ibrutinib 0.128 nM, IDH1i 10 uM / MALT1i 200 nM / medium alone
[35] = ibrutinib 0.64 nM, IDH1i 10 uM / MALT1i 200 nM / medium alone
[36] = ibrutinib 3.2 nM, IDH1i 10 uM / MALT1i 200 nM / medium alone
[37] = ibrutinib 16 nM, IDH1i 10 uM / MALT1i 200 nM / medium alone
[38] = ibrutinib 80 nM, IDH1i 10 uM / MALT1i 200 nM / medium alone
[39] = ibrutinib 400 nM, IDH1i 10 uM / MALT1i 200 nM / medium alone
[40] = ibrutinib 2000 nM, IDH1i 10 uM / MALT1i 200 nM / medium alone
[41] = ibrutinib 10000 nM, IDH1i 10 uM / MALT1i 200 nM / medium alone

`Cc1csc(=NC2CCCCC2)n1/N=C/c1ccc(O)c(O)c1O` [MIM1] was tested, and the “luminescence (CellTiter-Glo)” value [1, 12] was 36019.47, the “luminescence (CellTiter-Glo)” value [1, 13] was 19059.39 and the “luminescence (CellTiter-Glo)” value [1, 14] was 18570.62. The “luminescence (CellTiter-Glo)” value [1, 15] was 18591.98, the “luminescence (CellTiter-Glo)” value [1, 16] was 19112.81 and the “luminescence (CellTiter-Glo)” value [1, 17] was 19032.68. The “luminescence (CellTiter-Glo)” value [1, 18] was 19452.01, the “luminescence (CellTiter-Glo)” value [1, 19] was 18063.15 and the “luminescence (CellTiter-Glo)” value [1, 20] was 4767.52. For the same compound, the “luminescence (CellTiter-Glo)” value [1, 21] was 15624.64, the “luminescence (CellTiter-Glo)” value [2, 12] was 80237.62 and the “luminescence (CellTiter-Glo)” value [2, 13] was 76311.68. The “luminescence (CellTiter-Glo)” value [2, 14] was 80052.59, the “luminescence (CellTiter-Glo)” value [2, 15] was 80436.06 and the “luminescence (CellTiter-Glo)” value [2, 16] was 73884.80. For the same compound, the “luminescence (CellTiter-Glo)” value [2, 17] was 75378.47, the “luminescence (CellTiter-Glo)” value [2, 18] was 65609.22 and the “luminescence (CellTiter-Glo)” value [2, 19] was 74844.82. The “luminescence (CellTiter-Glo)” value [2, 20] was 75182.71, the “luminescence (CellTiter-Glo)” value [2, 21] was 74901.14 and the “luminescence (CellTiter-Glo)” value [3, 12] was 59686.00. The “luminescence (CellTiter-Glo)” value [3, 13] was 55451.36, the “luminescence (CellTiter-Glo)” value [3, 14] was 53088.09 and the “luminescence (CellTiter-Glo)” value [3, 15] was 54122.68. The “luminescence (CellTiter-Glo)” value [3, 16] was 53424.93, the “luminescence (CellTiter-Glo)” value [3, 17] was 51898.43 and the “luminescence (CellTiter-Glo)” value [3, 18] was 50938.68. For the same compound, the “luminescence (CellTiter-Glo)” value [3, 19] was 51419.90, the “luminescence (CellTiter-Glo)” value [3, 20] was 17553.45 and the “luminescence (CellTiter-Glo)” value [3, 21] was 49251.78. The “luminescence (CellTiter-Glo)” value [4, 12] was 51241.07, the “luminescence (CellTiter-Glo)” value [4, 13] was 27898.48 and the “luminescence (CellTiter-Glo)” value [4, 14] was 29488.62. For the same compound, the “luminescence (CellTiter-Glo)” value [4, 15] was 35637.34, the “luminescence (CellTiter-Glo)” value [4, 16] was 30743.57 and the “luminescence (CellTiter-Glo)” value [4, 17] was 31548.03. For the same compound, the “luminescence (CellTiter-Glo)” value [4, 18] was 32832.47, the “luminescence (CellTiter-Glo)” value [4, 19] was 28815.56 and the “luminescence (CellTiter-Glo)” value [4, 20] was 7366.12. The “luminescence (CellTiter-Glo)” value [4, 21] was 26941.18, the “luminescence (CellTiter-Glo)” value [5, 12] was 43143.62 and the “luminescence (CellTiter-Glo)” value [5, 13] was 33524.45. For the same compound, the “luminescence (CellTiter-Glo)” value [5, 14] was 26007.29, the “luminescence (CellTiter-Glo)” value [5, 15] was 18751.19 and the “luminescence (CellTiter-Glo)” value [5, 16] was 11024.10. For the same compound, the “luminescence (CellTiter-Glo)” value [5, 17] was 8025.84, the “luminescence (CellTiter-Glo)” value [5, 18] was 8938.24 and the “luminescence (CellTiter-Glo)” value [5, 19] was 9390.40. The “luminescence (CellTiter-Glo)” value [5, 20] was 9228.91, the “luminescence (CellTiter-Glo)” value [5, 21] was 10886.83 and the “luminescence (CellTiter-Glo)” value [6, 12] was 59686.0. For the same compound, the “luminescence (CellTiter-Glo)” value [6, 13] was 55451.4, the “luminescence (CellTiter-Glo)” value [6, 14] was 53088.1 and the “luminescence (CellTiter-Glo)” value [6, 15] was 54122.7. For the same compound, the “luminescence (CellTiter-Glo)” value [6, 16] was 53424.9, the “luminescence (CellTiter-Glo)” value [6, 17] was 51898.4 and the “luminescence (CellTiter-Glo)” value [6, 18] was 50938.7. The “luminescence (CellTiter-Glo)” value [6, 19] was 51419.9, the “luminescence (CellTiter-Glo)” value [6, 20] was 17553.4 and the “luminescence (CellTiter-Glo)” value [6, 21] was 49251.8.

With `Cc1ccccc1C(C(=O)NC1CCCCC1)N(C(=O)Cn1ccnc1C)c1cccc(F)c1` (centres unmarked) [AGI5198] the “luminescence (CellTiter-Glo)” value [7, 22] was 61813.89, the “luminescence (CellTiter-Glo)” value [7, 23] was 60845.63 and the “luminescence (CellTiter-Glo)” value [7, 24] was 58171.75. For the same compound, the “luminescence (CellTiter-Glo)” value [7, 25] was 64267.34, the “luminescence (CellTiter-Glo)” value [7, 26] was 61774.53 and the “luminescence (CellTiter-Glo)” value [7, 27] was 63970.82. For the same compound, the “luminescence (CellTiter-Glo)” value [7, 28] was 65372.05, the “luminescence (CellTiter-Glo)” value [7, 29] was 68413.28 and the “luminescence (CellTiter-Glo)” value [7, 30] was 66282.58. For the same compound, the “luminescence (CellTiter-Glo)” value [7, 31] was 58163.88, the “luminescence (CellTiter-Glo)” value [8, 22] was 54469.95 and the “luminescence (CellTiter-Glo)” value [8, 23] was 60402.37. For the same compound, the “luminescence (CellTiter-Glo)” value [8, 24] was 45182.13, the “luminescence (CellTiter-Glo)” value [8, 25] was 49163.38 and the “luminescence (CellTiter-Glo)” value [8, 26] was 37017.16. For the same compound, the “luminescence (CellTiter-Glo)” value [8, 27] was 22951.32, the “luminescence (CellTiter-Glo)” value [8, 28] was 21796.92 and the “luminescence (CellTiter-Glo)” value [8, 29] was 22543.73. For the same compound, the “luminescence (CellTiter-Glo)” value [8, 30] was 22738.32, the “luminescence (CellTiter-Glo)” value [8, 31] was 21999.40 and the “luminescence (CellTiter-Glo)” value [9, 32] was 124126.7. For the same compound, the “luminescence (CellTiter-Glo)” value [9, 33] was 130906.9, the “luminescence (CellTiter-Glo)” value [9, 34] was 145229.1 and the “luminescence (CellTiter-Glo)” value [9, 35] was 142615.3. For the same compound, the “luminescence (CellTiter-Glo)” value [9, 36] was 156751.0, the “luminescence (CellTiter-Glo)” value [9, 37] was 152240.5 and the “luminescence (CellTiter-Glo)” value [9, 38] was 152613.5. The “luminescence (CellTiter-Glo)” value [9, 39] was 145121.4, the “luminescence (CellTiter-Glo)” value [9, 40] was 149634.6 and the “luminescence (CellTiter-Glo)” value [9, 41] was 50666.3. The “luminescence (CellTiter-Glo)” value [10, 32] was 52209.68, the “luminescence (CellTiter-Glo)” value [10, 33] was 47490.41 and the “luminescence (CellTiter-Glo)” value [10, 34] was 48958.10. For the same compound, the “luminescence (CellTiter-Glo)” value [10, 35] was 45155.81, the “luminescence (CellTiter-Glo)” value [10, 36] was 46620.86 and the “luminescence (CellTiter-Glo)” value [10, 37] was 43920.00. The “luminescence (CellTiter-Glo)” value [10, 38] was 43730.28, the “luminescence (CellTiter-Glo)” value [10, 39] was 45769.76 and the “luminescence (CellTiter-Glo)” value [10, 40] was 43047.82. For the same compound, the “luminescence (CellTiter-Glo)” value [10, 41] was 31970.32, the “luminescence (CellTiter-Glo)” value ([11]; ibrutinib 0 nM, IDH1i 10 uM / MALT1i 100 nM alone) was 75993.70 and the “luminescence (CellTiter-Glo)” value ([11]; ibrutinib 0.0256 nM, IDH1i 10 uM / MALT1i 100 nM / medium alone) was 25500.80. The “luminescence (CellTiter-Glo)” value ([11]; ibrutinib 0.128 nM, IDH1i 10 uM / MALT1i 100 nM / medium alone) was 25788.09, the “luminescence (CellTiter-Glo)” value ([11]; ibrutinib 0.64 nM, IDH1i 10 uM / MALT1i 100 nM / medium alone) was 22928.31 and the “luminescence (CellTiter-Glo)” value ([11]; ibrutinib 3.2 nM, IDH1i 10 uM / MALT1i 100 nM / medium alone) was 23004.75. The “luminescence (CellTiter-Glo)” value ([11]; ibrutinib 16 nM, IDH1i 10 uM / MALT1i 100 nM / medium alone) was 22519.77, the “luminescence (CellTiter-Glo)” value ([11]; ibrutinib 80 nM, IDH1i 10 uM / MALT1i 100 nM / medium alone) was 22451.24 and the “luminescence (CellTiter-Glo)” value ([11]; ibrutinib 400 nM, IDH1i 10 uM / MALT1i 100 nM / medium alone) was 19936.75. For the same compound, the “luminescence (CellTiter-Glo)” value ([11]; ibrutinib 2000 nM, IDH1i 10 uM / MALT1i 100 nM / medium alone) was 19649.45 and the “luminescence (CellTiter-Glo)” value ([11]; ibrutinib 10000 nM, IDH1i 10 uM / MALT1i 100 nM / medium alone) was 9604.64.
